Series [1] deals with unstimulated T cells. Description: HLA-mismatched MLR after transient exposure of unstimulated T cells to PXD. The conditions noted are these: 10 μM PXD 24 h, washed, then MLR, FACS 8 days later; control MLR 62.6%. Format: cell-based, human. As for the experimental part: Mixed lymphocyte reactions were established using unrelated, HLA-mismatched healthy donor blood samples as donor/recipient pairs. Stimulator PBMC were γ-irradiated with 30 Gy as described previously (Zenhausen et al., 2007). Responder PBMC were washed twice in PBS, 5,6-carboxy-succinimidyl-fluorescein-ester (CSFE)-labelled (1.25 μM, Sigma) at room temperature for 5 minutes, and washed twice in PBS/10% FCS. Two hundred thousand stimulator and responder cells were added per well at a 1:1 ratio in a 96 U-well plate in T cell medium. Stimulator and responder cells were also plated alone, and all cells were cultured in a 5% CO2, 37° C. humidified incubator. Viability, CFSE fluorescence and cell surface antigen expression were determined by flow cytometry. Cells were washed twice in FACS buffer (PBS, 2% FCS), and resuspended in 50 μL/5×10^5 cells and analysed on a Becton Dickinson LSRII FACS analyser using FlowJo (TreeStar) software.
The inventors next determined whether a transient exposure to PXD affected the ability of unstimulated T cells to respond normally to foreign antigen. Unstimulated T cells were incubated with 10 μM PXD for 24 h, washed twice and stimulated by adding HLA-mismatched γ-irradiated stimulator cells.

Series [2] relates to late stage solid cancer patients. The conditions noted are these: intravenous infusion, phase I; cited from earlier work.
Series [3] has as its system proliferating T cells. As to the kind of experiment: Apoptosis/viability by Annexin V/propidium iodide staining. It counts as cell-based. The conditions noted are these: Homo sapiens, T-cell. Here is the method: Immediately prior to experiments, frozen PBMC were thawed, centrifuged at 1400 rpm in a Multifuge 3 s (Heraeus) for 4 min, washed in RPMI+10% FCS and resuspended in T cell medium (RPMI+10% FCS+10 μM 2-mercaptoethanol (Sigma), 1×glutamine, 1×non-essential amino acids (Gibco)) at 2×10^6 cells/mL. Cells (2×10^5) were activated by adding 10 μg/mL anti-CD3 and 5 μg/mL anti-CD28 and 20 U/mL IL-2 per well. Cells were incubated at 37° C. in a humidified incubator maintained at 5% CO2 for 4 to 5 days until large numbers of large spherical aggregates or “bursts” of lymphocytes were observed. Activated proliferating T cells were pooled from the wells for further experiments. Resting T cells were incubated for the same length of time but in the presence of 20 U/mL IL-2 only.
(§1) Cells were centrifuged at 1400 rpm in a Multifuge 3 s (Heraeus) for 4 min at room temperature, washed in phosphate buffered saline solution, pH 7.3 (PBS) and resuspended in Annexin V binding buffer. Small aliquots (0.5-1×10^6 cells) were transferred to 1.5 mL tubes and spun at 1400 rpm in a Multifuge 3 s (Heraeus) for 4 min. Most supernatant was removed and 5 μL PI and 5 μL FITC-labelled AV was added to the wet pellets which were vortexed. After 30 min in the dark on ice, 500 μl of AV binding buffer was added, the cells were centrifuged for 2 min at 1400 rpm, washed once with AV binding buffer and resuspended in 300 μL of AV binding buffer in FACS tubes. Staining was analyzed by flow cytometry using a Becton Dickinson Canto II FACS analyser using FlowJo (TreeStar) software.
The extent of apoptosis in resting and proliferating T cells was determined after 24 h exposure to 10 μM PXD (FIG. 2) by AV/PI staining. […] Resting T cells were not affected (FIG. 2D). The percentage of viable proliferating T cells dropped from 74% (FIG. 2F) to 51% after exposure to 10 μM PXD for 24 h (FIG. 2H), whilst the percentage of viable resting T cells was unaltered (FIGS. 2B and D).
In order to investigate whether cells need to be exposed continually to PXD for its effects to manifest, proliferating T cells were exposed to 10 μM PXD for different periods of time, washed cells twice in RPMI and incubated for a further 24 h in fresh T cell medium.

Series [4] has as its system MM-derived RPMI 8226. Description: Sensitivity of cell types to PXD, viability by AV/PI staining. The conditions noted are these: RPMI 8226, 10 μM PXD for 24 h. It counts as cell-based, human. Here is the method:
(§2) FIG. 6. Sensitivity of different cell types to PXD. Different cell types were incubated with 10 μM PXD for 24 h and viability was determined by AV/PI staining and reported as [% viable blasts after PXD exposure]/[% viable blasts after 0.1% DMSO exposure]. Percentage values are as follows: AML-derived HL60: 16±5 and HL60p°: 54±6, ALL-derived MOLT-4: 44±4, MM-derived U226: 59±6 and RPMI 8226: 12±4, primary AML blasts: 64±5, primary ALL blasts: 23±4, normal BM: 89±5, proliferating T cells: 69±4, resting T cells: 98±6. Results from cell lines are presented as the average±SEM of at least 3 separate experiments, results from bone marrow samples are presented as the average±SD of single experiments performed in duplicate.
(§3) Cell lines were grown in RPMI-1640 medium (GIBCO-BRL, Grand Island, N.Y.) supplemented with 5% (v/v) fetal calf serum, 2 mM […], 25 μg/mL penicillin, 25 μg/mL streptomycin, 50 μg/mL uridine and 1 mM pyruvate to densities of 1-2×10^6 cells/mL (exponential stage), at 37° C. in a humidified incubator maintained at 5% CO2.
Cells were centrifuged at 1400 rpm in a Multifuge 3 s (Heraeus) for 4 min at room temperature, washed in phosphate buffered saline solution, pH 7.3 (PBS) and resuspended in Annexin V binding buffer. […] Staining was analyzed by flow cytometry using a Becton Dickinson Canto II FACS analyser using FlowJo (TreeStar) software.

Series [5] relates to MM-derived U226. Described as above. The conditions noted are these: Homo sapiens; U226, 10 μM PXD for 24 h; read-out: [% viable blasts after PXD exposure]/[% viable blasts after 0.1% DMSO exposure]. Format: cell-based. Here is the method:
as §2, §3, §1

Series [6] relates to AML-derived HL60. Described as above. It counts as cell-based. The conditions noted are these: Homo sapiens, HL-60; HL60, 10 μM PXD for 24 h; read-out: [% viable blasts after PXD exposure]/[% viable blasts after 0.1% DMSO exposure]. As for the experimental part:
as §2, §3, §1

In series [7] the test system is ALL-derived MOLT-4. The description is as above. Format: cell-based. The conditions noted are these: Homo sapiens; MOLT-4, 10 μM PXD for 24 h; read-out: [% viable blasts after PXD exposure]/[% viable blasts after 0.1% DMSO exposure]. As for the experimental part: as §2, §3, §1
For series [8], the system named is HL60p°. The series is described as above. It counts as cell-based. The conditions noted are these: Homo sapiens, 10 μM PXD for 24 h, read-out: [% viable blasts after PXD exposure]/[% viable blasts after 0.1% DMSO exposure]. Here is the method: as §2, §3, §1

Read-outs that look alike come from different tables or passages of the source.

In the case of `Oc1ccc(C2=Cc3ccc(O)cc3OC2)cc1` [PXD, Isoflav-3-en-4′,7-diol], the “CD3+CFSEloAV− population after transient exposure” value in series [1] was found to be 56.2%. Also, in series [2], the “stabilization of disease after treatment, some patients” value is “up to 6 months”. Also, the “well tolerated dose with minor side effects” value in series [2] is listed as not above 30 mg/kg. Further, the viability at 10 µM amounted to 51% in series [3] (24 h, 10 μM PXD for 24 h, control 74%, read-out: percentage of viable proliferating T cells (AV/PI)); 69 ± 4% in series [3] (24 h, proliferating T cells, 10 μM PXD for 24 h, read-out: [% viable blasts after PXD exposure]/[% viable blasts after 0.1% DMSO exposure]); 70 ± 7.1% in series [3] (PXD pre-incubated in 10% FCS, 10 μM final, relative to 0.1% DMSO, read-out: % Viable cells after exposure time 24 h); 64 ± 4.6% in series [3] (PXD pre-incubated in 10% FCS, 10 μM final, then 24 h, relative to 0.1% DMSO, read-out: % Viable cells after exposure time 1 min); 60 ± 7.1% in series [3] (PXD pre-incubated in 10% FCS, 10 μM final, then 24 h, relative to 0.1% DMSO, read-out: % Viable cells after exposure time 10 min); 69 ± 7.2% in series [3] (PXD pre-incubated in 90% FCS, 10 μM final, relative to 0.1% DMSO, read-out: % Viable cells after exposure time 24 h). Besides, the viability at 10 µM was found to be 66 ± 4.2% in series [3] (PXD pre-incubated in 90% FCS, 10 μM final, then 24 h, relative to 0.1% DMSO, read-out: % Viable cells after exposure time 1 min); 62 ± 5.7% in series [3] (PXD pre-incubated in 90% FCS, 10 μM final, then 24 h, relative to 0.1% DMSO, read-out: % Viable cells after exposure time 10 min); 73.5 ± 9.2% in series [3] (PXD pre-incubated in 90% Human Serum, 10 μM final, relative to 0.1% DMSO, read-out: % Viable cells after exposure time 24 h); 69 ± 4.4% in series [3] (PXD pre-incubated in 90% Human Serum, 10 μM final, then 24 h, relative to 0.1% DMSO, read-out: % Viable cells after exposure time 1 min); 72 ± 7.3% in series [3] (PXD pre-incubated in 90% Human Serum, 10 μM final, then 24 h, relative to 0.1% DMSO, read-out: % Viable cells after exposure time 10 min); 59 ± 6% in series [5]. The viability at 10 µM in series [6] was determined as 16 ± 5%; in series [7], 44 ± 4%; in series [8], 54 ± 6%. In addition, in series [4], the “[% viable blasts after PXD exposure]/[% viable blasts after 0.1% DMSO exposure]” value is on record as 12±4%.

The record behind these values is patent US20120039917A1, “IMMUNO[…]” (priority 2008, published 2012).
